Data: PubChem BioAssay AID248 (DTP/NCI, 2004)
Values joined by “and” are separate entries in the source; they are usually repeats but may differ in a detail not shown here. Equal entries are not always repeated. Toxic doses and inconclusive results are not listed. Cut-off read from the data, not from the text of the source: active = T/C of 150% or more; inactive = T/C below 125%.

System: L1210 leukemia ip in BDF1 mice, survival T/C
Assay: NCI In Vivo Anticancer Drug Screen. Data for tumor model L1210 Leukemia (intraperitoneal) in B6D2F1 (BDF1) mice
Conditions: endpoint: mean survival time, higher = longer survival
Method in brief: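 Survival endpoint. Drug-treated group vs vehicle group, expressed as T divided by C. Tumor passaged by transplantation.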

[1] = dose: 100.0 mg/kg/injection, schedule: Q01DX001 (ip), vehicle: saline
[2] = dose: 200.0 mg/kg/injection, schedule: Q01DX001 (ip), vehicle: saline
[3] = dose: 400.0 mg/kg/injection, schedule: Q01DX001 (ip), vehicle: saline
[4] = dose: 100.0 mg/kg/injection, schedule: Q01DX001 (ip), vehicle: Klucel (hydroxypropylcellulose) (HPC)
[5] = dose: 100.0 mg/kg/injection, schedule: Q04DX003 (ip), vehicle: Klucel (hydroxypropylcellulose) (HPC)
[6] = dose: 200.0 mg/kg/injection, schedule: Q01DX001 (ip), vehicle: Klucel (hydroxypropylcellulose) (HPC)
[7] = dose: 200.0 mg/kg/injection, schedule: Q04DX003 (ip), vehicle: Klucel (hydroxypropylcellulose) (HPC)
[8] = dose: 400.0 mg/kg/injection, schedule: Q01DX001 (ip), vehicle: Klucel (hydroxypropylcellulose) (HPC)
[9] = dose: 400.0 mg/kg/injection, schedule: Q04DX003 (ip), vehicle: Klucel (hydroxypropylcellulose) (HPC)
[10] = dose: 100.0 mg/kg/injection, schedule: Q01DX009 (ip), vehicle: saline
[11] = dose: 200.0 mg/kg/injection, schedule: Q01DX009 (ip), vehicle: saline
[12] = dose: 100.0 mg/kg/injection, schedule: Q01DX009 (ip), vehicle: saline with Tween-80
[13] = dose: 400.0 mg/kg/injection, schedule: Q04DX003 (ip), vehicle: saline with Tween-80
[14] = dose: 100.0 mg/kg/injection, schedule: Q04DX002 (ip), vehicle: saline with Tween-80
[15] = dose: 200.0 mg/kg/injection, schedule: Q04DX002 (ip), vehicle: saline with Tween-80
[16] = dose: 200.0 mg/kg/injection, schedule: Q04DX003 (ip), vehicle: saline with Tween-80
[17] = dose: 400.0 mg/kg/injection, schedule: Q04DX002 (ip), vehicle: saline with Tween-80
[18] = dose: 50.0 mg/kg/injection, schedule: Q01DX001 (ip), vehicle: saline
[19] = dose: 50.0 mg/kg/injection, schedule: Q01DX009 (ip), vehicle: Klucel (hydroxypropylcellulose) (HPC)
[20] = dose: 100.0 mg/kg/injection, schedule: Q04DX003 (ip), vehicle: saline with Tween-80

Measured: T/C

Cc1ccc(-c2nc3ncncc3[nH]2)cc1[N+](=O)[O-]
inactive: dose: 32.5 mg/kg/injection, schedule: Q01DX001 (ip), vehicle: Klucel (hydroxypropylcellulose) (HPC) 100 % of control | dose: 65.0 mg/kg/injection, schedule: Q01DX001 (ip), vehicle: Klucel (hydroxypropylcellulose) (HPC) 102 % of control | dose: 130.0 mg/kg/injection, schedule: Q01DX001 (ip), vehicle: Klucel (hydroxypropylcellulose) (HPC) 97 % of control

OCC(O)C(O)C(O)CN=Cc1ccccc1O (stereo unspecified)
inactive: dose: 75.0 mg/kg/injection, schedule: Q04DX002 (ip), vehicle: saline with Tween-80 106 % of control | dose: 150.0 mg/kg/injection, schedule: Q04DX002 (ip), vehicle: saline with Tween-80 98 % of control | dose: 300.0 mg/kg/injection, schedule: Q04DX002 (ip), vehicle: saline with Tween-80 109 % of control

NCCCN1CCCC1=O
inactive: [1] 98 % of control | [2] 101 % of control | [3] 98 % of control

Cc1ccccc1N=Cc1cc(Cl)ccc1O
inactive: [4] 97 % of control | [5] 88 % of control | [6] 95 % of control | [7] 97 % of control | [8] 93 % of control | [9] 101 % of control

O=C(NCCO)C1OCOC2C(CO)OCOC12 (stereo unspecified)
inactive: dose: 12.5 mg/kg/injection, schedule: Q04DX002 (ip), vehicle: saline 101 % of control | dose: 25.0 mg/kg/injection, schedule: Q04DX002 (ip), vehicle: saline 101 % of control | dose: 50.0 mg/kg/injection, schedule: Q04DX002 (ip), vehicle: saline 101 % of control | dose: 100.0 mg/kg/injection, schedule: Q04DX002 (ip), vehicle: saline 93 % of control

C1CCC2C(C1)CCC1OC12 (stereo unspecified)
inactive: [10] 112 % of control | [11] 102 % of control | dose: 400.0 mg/kg/injection, schedule: Q01DX009 (ip), vehicle: saline 107 % of control

CC(CO)(NC(=O)OCc1ccccc1)C(=O)O (stereo unspecified)
inactive: dose: 100.0 mg/kg/injection, schedule: Q01DX009 (ip), vehicle: acetone 94 % of control | dose: 200.0 mg/kg/injection, schedule: Q01DX009 (ip), vehicle: acetone 92 % of control | dose: 400.0 mg/kg/injection, schedule: Q01DX009 (ip), vehicle: acetone 92 % of control

C1=C(c2ccccc2)N(C2CCCCCCC2)C(c2ccccc2)=CN1Cc1ccccc1
inactive: dose: 100.0 mg/kg/injection, schedule: Q04DX002 (ip), vehicle: Klucel (hydroxypropylcellulose) (HPC) 103 % of control | dose: 200.0 mg/kg/injection, schedule: Q04DX002 (ip), vehicle: Klucel (hydroxypropylcellulose) (HPC) 103 % of control | dose: 400.0 mg/kg/injection, schedule: Q04DX002 (ip), vehicle: Klucel (hydroxypropylcellulose) (HPC) 100 % of control

CNc1ccccc1C(N)=S
inactive: dose: 50.0 mg/kg/injection, schedule: Q01DX009 (ip), vehicle: saline 111 % of control | dose: 50.0 mg/kg/injection, schedule: Q04DX003 (ip), vehicle: saline 106 % of control | [10] 97 % of control | dose: 100.0 mg/kg/injection, schedule: Q04DX003 (ip), vehicle: saline 105 % of control | [11] 101 % of control | dose: 200.0 mg/kg/injection, schedule: Q04DX003 (ip), vehicle: saline 105 % of control

CC(C)C/C=N\N=C(N)N
inactive: dose: 15.0 mg/kg/injection, schedule: Q01DX Z (ip), vehicle: saline 103 % of control | dose: 30.0 mg/kg/injection, schedule: Q01DX Z (ip), vehicle: saline 113 % of control | dose: 60.0 mg/kg/injection, schedule: Q01DX Z (ip), vehicle: saline 104 % of control and 90 % of control | dose: 60.0 mg/kg/injection, schedule: Q01DX Z (sc), vehicle: saline 117 % of control | dose: 120.0 mg/kg/injection, schedule: Q01DX Z (ip), vehicle: saline 103 % of control | dose: 120.0 mg/kg/injection, schedule: Q01DX Z (sc), vehicle: saline 110 % of control

CCCCCCCCCCCCCCCC(=O)Nc1cccc2c[n+](CC(=O)c3ccc(NC(=O)CCC(=O)OC)cc3)ccc12
inactive: [12] 87 % of control | dose: 400.0 mg/kg/injection, schedule: Q01DX009 (ip), vehicle: saline with Tween-80 91 % of control | [13] 94 % of control

CN(C)C(=O)CCOc1cccc2ccccc12
inactive: dose: 75.0 mg/kg/injection, schedule: Q01DX001 (ip), vehicle: saline 100 % of control

Nc1nc(NCCCc2ccccc2)c(N=Nc2ccccc2)c(=O)[nH]1
inactive: dose: 100.0 mg/kg/injection, schedule: Q01DX001 (ip), vehicle: saline with Tween-80 106 % of control | [12] 98 % of control and 100 % of control | [14] 94 % of control | dose: 200.0 mg/kg/injection, schedule: Q01DX001 (ip), vehicle: saline with Tween-80 107 % of control | dose: 200.0 mg/kg/injection, schedule: Q01DX009 (ip), vehicle: saline with Tween-80 93 % of control and 98 % of control | [15] 93 % of control and 89 % of control | [16] 86 % of control | dose: 400.0 mg/kg/injection, schedule: Q01DX001 (ip), vehicle: saline with Tween-80 104 % of control | [17] 94 % of control and 89 % of control | [13] 86 % of control

C1CC2CN(CCCN3CCOCC3)C(C1)O2 (stereo unspecified)
inactive: [18] 95 % of control | [1] 101 % of control | [2] 101 % of control | [3] 97 % of control

CCC1C(=O)OC(=O)c2oc3ccc(Cl)cc3c21 (stereo unspecified)
inactive: [4] 100 % of control | [6] 102 % of control | [8] 94 % of control

CCOP(=O)(OCC)N1CC1c1ccccc1 (stereo unspecified)
inactive: dose: 75.0 mg/kg/injection, schedule: Q01DX001 (ip), vehicle: carboxymethylcellulose (CMC) 114 % of control

O=C(NN(c1ccccc1)c1cccc2ccccc12)c1ccccc1
inactive: [19] 103 % of control | dose: 100.0 mg/kg/injection, schedule: Q01DX009 (ip), vehicle: Klucel (hydroxypropylcellulose) (HPC) 103 % of control | [5] 89 % of control | dose: 200.0 mg/kg/injection, schedule: Q01DX009 (ip), vehicle: Klucel (hydroxypropylcellulose) (HPC) 97 % of control | [7] 93 % of control | dose: 400.0 mg/kg/injection, schedule: Q01DX009 (ip), vehicle: Klucel (hydroxypropylcellulose) (HPC) 100 % of control | [9] 94 % of control

c1ccc2c(OCC3CO3)cccc2c1 (stereo unspecified)
inactive: dose: 50.0 mg/kg/injection, schedule: Q01DX001 (ip), vehicle: other 94 % of control | dose: 100.0 mg/kg/injection, schedule: Q01DX001 (ip), vehicle: other 94 % of control | dose: 200.0 mg/kg/injection, schedule: Q01DX001 (ip), vehicle: other 94 % of control | dose: 400.0 mg/kg/injection, schedule: Q01DX001 (ip), vehicle: other 111 % of control

NNC(=O)c1cc2c3ccccc3ncc2c2ccccc12
inactive: [20] 86 % of control | [16] 94 % of control | [13] 108 % of control

O=C(/C=C/c1cccc([N+](=O)[O-])c1)c1cccc([N+](=O)[O-])c1
inactive: dose: 12.5 mg/kg/injection, schedule: Q01DX009 (ip), vehicle: Klucel (hydroxypropylcellulose) (HPC) 94 % of control | dose: 25.0 mg/kg/injection, schedule: Q01DX009 (ip), vehicle: Klucel (hydroxypropylcellulose) (HPC) 92 % of control | dose: 25.0 mg/kg/injection, schedule: Q04DX003 (ip), vehicle: Klucel (hydroxypropylcellulose) (HPC) 94 % of control | [19] 87 % of control | dose: 50.0 mg/kg/injection, schedule: Q04DX003 (ip), vehicle: Klucel (hydroxypropylcellulose) (HPC) 103 % of control

CC(C)(CCl)c1ccccc1
inactive: [14] 107 % of control | [15] 88 % of control | [17] 88 % of control

O=C(CC(c1ccccc1)N1CCCCC1)c1ccccc1 (stereo unspecified)
inactive: [18] 97 % of control | [1] 100 % of control | [2] 94 % of control | [3] 97 % of control

Cc1ccc(Cl)cc1N=Cc1ccccc1O
inactive: [20] 94 % of control | [13] 98 % of control

CN(N=O)C(=O)NCCNC(=O)N(C)N=O
inactive: dose: 150.0 mg/kg/injection, schedule: Q01DX Z (ip), vehicle: carboxymethylcellulose (CMC) 108 % of control
